± gives the standard deviation of the reports.
| Compound | glass transition temperature |
| --- | --- |
| *CC(*)C(=O)OCCN(C)C (repeat unit) | -39.00 °C |
| *c1ccc(C(=O)Nc2ccc(NC(=O)c3ccc(Oc4ccc(-c5nn(*)c(=O)c6ccccc56)c5ccccc45)cc3)cc2)cc1 (repeat unit) | 347.50 °C |
| *OC(=O)OCCCCCCCCCCOC(=O)OC1COC2C(*)COC12 (repeat unit) | 6.50 °C |
| *CC(*)c1ccc(Oc2ccccc2)cc1 (repeat unit) | 85.00 °C |
| *CC(*)c1ccc([SiH](C)C)cc1 (repeat unit) | 105.00 °C |
| *Oc1ccc(Oc2ccc(C(=O)c3cccc(-c4cccc(C(=O)c5ccc(*)cc5)c4)c3)cc2)cc1 (repeat unit) | 154.00 °C |
| *c1ccc2c(c1)C(CCCCCCCC)(CCCCCCCC)c1cc(-c3ccc(*)c4nsnc34)ccc1-2 (repeat unit) | 113.2 ± 1.8 °C |
| */C=C(/*)CCCOc1ccc(OC(=O)c2ccc(OC)cc2)cc1 (repeat unit) | 20.00 °C |
| *CC(*)C(=O)OCC(F)(F)C(F)(F)C(F)(F)F (repeat unit) | -30.00 °C |
| *O[Si](C)(C)C#C[Si](C)(C)C#C[Si](C)(C)C#C[Si](C)(C)C#C[Si](C)(C)C#C[Si](*)(C)C (repeat unit) | -16.10 °C |
| *c1ccc(Oc2cccc(N3C(=O)c4ccc(-c5cccc6c5C(=O)N(*)C6=O)cc4C3=O)c2)cc1 (repeat unit) | 286.00 °C |
| *CCCCCCN1C(=O)c2ccc(C(=O)Nc3ccc(S(=O)(=O)c4ccc(NC(=O)c5ccc6c(c5)C(=O)N(*)C6=O)cc4)cc3)cc2C1=O (repeat unit) | 198.00 °C |
| *C(=O)N1C(=O)N(C(=O)c2ccc3c(c2)C(=O)N(c2ccc(Oc4ccc(N5C(=O)c6ccc(*)cc6C5=O)cc4)cc2)C3=O)C(C)(C)C1=O (repeat unit) | 156.00 °C |
| *c1ccc(-c2nc3ccc(S(=O)(=O)c4ccc5nc(*)c(-c6ccccc6)nc5c4)cc3nc2-c2ccccc2)cc1 (repeat unit) | 345.00 °C |
| *CC(*)(CC(=O)OC(C)C)C(=O)OC12CC3CC(CC(C3)C1)C2 (repeat unit) | 180.00 °C |
| *Oc1ccc(-c2ccc(Oc3ccc(C(=O)c4c(C(=O)c5ccc(*)cc5)c(-c5ccccc5)c(-c5ccc6ccccc6c5)c(-c5ccc6ccccc6c5)c4-c4ccccc4)cc3)cc2)cc1 (repeat unit) | 290.00 °C |
| *c1cc(CCCCCCOC(=O)COC)c(*)s1 (repeat unit) | 37.00 °C |
| *Nc1cccc2c(NC(=O)c3cc(NC(=O)C(CCSC)N4C(=O)c5ccccc5C4=O)cc(C(*)=O)c3)cccc12 (repeat unit) | 198.00 °C |
| *CC(*)C(=O)NCCCCCC(=O)O (repeat unit) | 68.00 °C |
| *c1ccc(NC2CC(=O)N(c3ccc(-c4sc(-c5ccc(N6C(=O)CC(Nc7ccc(-c8nc(-c9ccc(/C=C/c%10ccc([N+](=O)[O-])cc%10)s9)[nH]c8*)cc7)C6=O)cc5)c(-c5ccccc5)c4-c4ccccc4)cc3)C2=O)cc1 (repeat unit) | 304.00 °C |
| *NC1CCC(CC2CCC(NC(=O)CCCCC(*)=O)CC2)CC1 (repeat unit) | 185.00 °C |
| *C(=O)c1cc(C(=O)c2ccc3c(c2)C(=O)N(c2ccc(C(c4ccc(N5C(=O)c6ccc(*)cc6C5=O)cc4)(C(F)(F)F)C(F)(F)F)cc2)C3=O)cc(-c2ccccc2)c1 (repeat unit) | 260.50 °C |
| *c1ccc(Oc2ccc(Oc3ccc(N4C(=O)c5ccc(Oc6ccc7c(c6)C(=O)N(*)C7=O)cc5C4=O)cc3C(F)(F)F)cc2)cc1 (repeat unit) | 232.30 °C |
| *Oc1ccc(OC(=O)c2cc(OCCCCCCCCCOCC3CCCN3c3ccc([N+](=O)[O-])cc3)c(C(*)=O)cc2OCCCCCCCCCOCC2CCCN2c2ccc([N+](=O)[O-])cc2)cc1 (repeat unit) | 34.00 °C |
| *c1ccc(N2C(=O)CC(C3C=C(C)C4C(=O)N(*)C(=O)C4C3)C2=O)cc1 (repeat unit) | 327.00 °C |

| Compound | glass transition temperature |
| --- | --- |
| *CC(*)C(C)C (repeat unit) [Poly(isopropylethylene)] | 49 ± 18 °C |
| *c1ccc(Oc2ccc3c(c2)C(=O)N(*)C3=O)cc1 (repeat unit) | 266.00 °C |
| *Nc1ccc(-c2ccc(NC(=O)c3ccc(C(*)=O)cc3)cc2)cc1 (repeat unit) | 340.00 °C |
| *CC(*)(C)C(=O)OCCO[N+](=O)[O-] (repeat unit) | 55.00 °C |
| *CCCN(*)C(C)=O (repeat unit) | 30.00 °C |
| *c1ccc2c(c1)C(=O)N(c1cccc(C(C)(C)c3ccc(N4C(=O)c5ccc(C(*)(C(F)(F)F)C(F)(F)F)cc5C4=O)cc3)c1)C2=O (repeat unit) | 260.00 °C |
| *c1ccc(-c2ccc(-n3c(=O)c4cc5c(=O)n(*)c(=O)c5c(C(F)(F)F)c4c3=O)cc2C(F)(F)F)c(C(F)(F)F)c1 (repeat unit) | 373.00 °C |
| *CC(*)C(=O)OCCCCCCCCCCCOc1ccc(C(=O)Oc2ccc(-c3ccc(OC(C)CCCCCC)cc3)cc2)cc1 (repeat unit) | 50.00 °C |
| *C(C)C(*)C(=O)OC12CC3CC(C)(CC(C)(C3)C1)C2 (repeat unit) | 194.50 °C |
| *Oc1ccc(Oc2ccc(C(=O)c3c(C(=O)c4ccc(*)cc4)c(-c4ccc(F)cc4)c(-c4ccc(F)cc4)c(-c4ccc(F)cc4)c3-c3ccc(F)cc3)cc2)cc1 (repeat unit) | 266.00 °C |
| *O[Si](*)(C)CCCCC (repeat unit) | -112.00 °C |
| *O[Si](C)(C)CCC/N=C1C=C(O)/C(=N\CCC[Si](*)(C)C)C=C\1O (repeat unit) | 70.34 °C |
| *C(=O)OCCCCCCCCOC(=O)c1ccc(NC(=O)c2ccc(N3C(=O)c4ccc(*)cc4C3=O)cc2)cc1 (repeat unit) | 105.00 °C |
| *CC(O)COc1cccc(O*)c1 (repeat unit) | 65.00 °C |
| *CCC(C)S* (repeat unit) | -59.00 °C |
| *CC(*)OC(=O)C(F)(F)C(F)(F)F (repeat unit) | 42.00 °C |
| *CC(*)c1ccc2ccccc2c1 (repeat unit) | 146.50 °C |
| *CC(OC(C)C)C1C(=O)OC(=O)C1* (repeat unit) | 142.00 °C |
| *Oc1ccc(C(c2ccc(Oc3ccc(C(=O)Nc4ccc(-c5ccc(NC(=O)c6ccc(*)cc6)cc5C(F)(F)F)c(C(F)(F)F)c4)cc3)cc2)(C(F)(F)F)C(F)(F)F)cc1 (repeat unit) | 240.00 °C |
| *Sc1ccc(Cc2ccc(SC(*)=O)cc2)cc1 (repeat unit) | 117.00 °C |
| *O[Si](*)(C)c1c(F)c(F)c(F)c(F)c1F (repeat unit) | -25.00 °C |
| *CC(*)C(=O)OCCOCCOC(F)(F)C(F)F (repeat unit) | -40.00 °C |
| *CC(*)OC(=O)CC(C)(C)c1ccccc1 (repeat unit) | 20.00 °C |
| *C(*)C(=O)OCC (repeat unit) | 13.50 °C |
| *Oc1ccc(CC(NC(=O)CCc2ccc(OC(=O)CCCC(*)=O)cc2)C(=O)OCCCC)cc1 (repeat unit) | 56.00 °C |

Source: the PolyMetriX glass transition set
